Experiments:
SREBP-2 = SREBP-2 (Homo sapiens (Human), UniProt Q12772); test: In vitro assay SREBP-2: PathHunter U2OS SREBP-2 Nuclear Translocation Cell Line, U18666A-stimulated; assay type: cell-based; settings: PathHunter U2OS SREBP-2 nuclear translocation cells, U18666A 10 μM, overnight (16 hours)
LXRβ = LXRβ (Homo sapiens (Human), UniProt P55055); test: In vitro assay LXRβ: PathHunter NHR CHO cells, LXRβ / Steroid Receptor Co-activator Peptide enzyme fragment complementation; assay type: cell-based; settings: PathHunter NHR CHO cells, full-length human LXRβ and SRCP, chemiluminescent signal; read-out: LXRβ PPI
LXRβ, sequence (P55055 whole entry, the tested form may be a part): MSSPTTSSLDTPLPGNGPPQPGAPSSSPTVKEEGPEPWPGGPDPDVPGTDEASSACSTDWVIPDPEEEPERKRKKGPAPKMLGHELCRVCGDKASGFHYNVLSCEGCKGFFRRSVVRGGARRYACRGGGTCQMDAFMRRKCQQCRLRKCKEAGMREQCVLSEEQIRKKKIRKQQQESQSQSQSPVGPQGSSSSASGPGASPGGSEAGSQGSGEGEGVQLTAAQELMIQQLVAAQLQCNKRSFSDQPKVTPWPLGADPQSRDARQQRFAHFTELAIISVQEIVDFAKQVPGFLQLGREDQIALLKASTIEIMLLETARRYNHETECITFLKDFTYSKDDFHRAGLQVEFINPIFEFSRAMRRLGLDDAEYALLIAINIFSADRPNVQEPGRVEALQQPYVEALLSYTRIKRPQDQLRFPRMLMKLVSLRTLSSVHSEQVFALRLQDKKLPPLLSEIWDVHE
Procedure, shortened: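 Co-activator recruitment measured by chemiluminescence after signal generation. The CHO line carries full-length human LXRβ tagged with ProLink and an SRCP–enzyme acceptor fusion in the nucleus; cells sat overnight at 37° C before testing, in charcoal-dextran filtered serum medium with 1% final vehicle.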

Compound | IC50 (SREBP-2) [nM] | EC50 (LXRβ) [nM]
C[C@H](COc1cccnc1)[C@H]1CC[C@H]2[C@@H]3CC=C4C[C@@H](O)CC[C@]4(C)[C@H]3CC[C@]12C [Example 180, (3S,8S,9S,10R,13S,14S,17R)-10,13-dimethyl-17-((S)-1-(pyridin-3-yloxy)propan-2-yl)-2,3,4,7,8,9,10,11,12,13,14,15,16,17-tetradecahydro-1H-cyclopenta[a]phenanthren-3-ol] | < 250 | > 10000
C[C@H](CCC(=O)N(C)C1CCN(C(=O)N(C)C)CC1)[C@H]1CC[C@H]2[C@@H]3CC=C4C[C@@H](O)CC[C@]4(C)[C@H]3CC[C@]12C [Example 644, 4-((R)-4-((3S,8S,9S,10R,13R,14S,17R)-3-hydroxy-10,13-dimethyl-2,3,4,7,8,9,10,11,12,13,14,15,16,17-tetradecahydro-1H-cyclopenta[a]phenanthren-17-yl)-N-methylpentanamido)-N,N-dimethylpiperidine-1-carboxamide] | < 250 | > 10000
CC(=O)N[C@H]1CCN(C(=O)CC[C@@H](C)[C@H]2CC[C@H]3[C@@H]4CC=C5C[C@@H](O)CC[C@]5(C)[C@H]4CC[C@]23C)C1 [Example 322, N—((S)-1-((R)-4-((3S,8S,9S,10R,13R,14S,17R)-3-hydroxy-10,13-dimethyl-2,3,4,7,8,9,10,11,12,13,14,15,16,17-tetradecahydro-1H-cyclopenta[a]phenanthren-17-yl)pentanoyl)pyrrolidin-3-yl)acetamide] | < 250 | > 10000
C=CCN1C[C@@H]2CON(C(=O)CC[C@@H](C)[C@H]3CC[C@H]4[C@@H]5CC=C6C[C@@H](O)CC[C@]6(C)[C@H]5CC[C@]34C)[C@@H]2C1 [Example 46, (R)-1-((3aS,6aS)-5-allylhexahydro-1H-pyrrolo[3,4-c]isoxazol-1-yl)-4-((3S,8S,9S,10R,13R,14S,17R)-3-hydroxy-10,13-dimethyl-2,3,4,7,8,9,10,11,12,13,14,15,16,17-tetradecahydro-1H-cyclopenta[a]phenanthren-17-yl)pentan-1-one] | 250 to 1000 | > 10000
Cc1nccc(N2CCN(C(=O)CC[C@@H](C)[C@H]3CC[C@H]4[C@@H]5CC=C6C[C@@H](O)CC[C@]6(C)[C@H]5CC[C@]34C)CC2)n1 [Example 205, (R)-4-((3S,8S,9S,10R,13R,14S,17R)-3-hydroxy-10,13-dimethyl-2,3,4,7,8,9,10,11,12,13,14,15,16,17-tetradecahydro-1H-cyclopenta[a]phenanthren-17-yl)-1-(4-(2-methylpyrimidin-4-yl)piperazin-1-yl)pentan-1-one] | < 250 | > 10000
C[C@H](CCC(=O)N1CC2(CC(O)C2)C1)[C@H]1CC[C@H]2[C@@H]3CC=C4C[C@@H](O)CC[C@]4(C)[C@H]3CC[C@]12C [Example 100, (R)-4-((3S,8S,9S,10R,13R,14S,17R)-3-hydroxy-10,13-dimethyl-2,3,4,7,8,9,10,11,12,13,14,15,16,17-tetradecahydro-1H-cyclopenta[a]phenanthren-17-yl)-1-(6-hydroxy-2-azaspiro[3.3]heptan-2-yl)pentan-1-one] | < 250 | > 10000
CC1CN(C(=O)N2CCN(C(=O)CC[C@@H](C)[C@H]3CC[C@H]4[C@@H]5CC=C6C[C@@H](O)CC[C@]6(C)[C@H]5CC[C@]34C)CC2)C1 [Example 664, (R)-4-((3S,8S,9S,10R,13R,14S,17R)-3-hydroxy-10,13-dimethyl-2,3,4,7,8,9,10,11,12,13,14,15,16,17-tetradecahydro-1H-cyclopenta[a]phenanthren-17-yl)-1-(4-(3-methylazetidine-1-carbonyl)piperazin-1-yl)pentan-1-one] | < 250 | > 10000
C[C@H](CCC(=O)N1CCC(S(=O)(=O)N(C)C)CC1)[C@H]1CC[C@H]2[C@@H]3CC=C4C[C@@H](O)CC[C@]4(C)[C@H]3CC[C@]12C [Example 413, 1-((R)-4-((3S,8S,9S,10R,13R,14S,17R)-3-hydroxy-10,13-dimethyl-2,3,4,7,8,9,10,11,12,13,14,15,16,17-tetradecahydro-1H-cyclopenta[a]phenanthren-17-yl)pentanoyl)-N,N-dimethylpiperidine-4-sulfonamide] | 250 to 1000 | > 10000
CC[C@@]1(OC)CCCN(C(=O)CC[C@@H](C)[C@H]2CC[C@H]3[C@@H]4CC=C5C[C@@H](O)CC[C@]5(C)[C@H]4CC[C@]23C)C1 [Example 201, (R)-1-((R)-3-ethyl-3-methoxypiperidin-1-yl)-4-((3S,8S,9S,10R,13R,14S,17R)-3-hydroxy-10,13-dimethyl-2,3,4,7,8,9,10,11,12,13,14,15,16,17-tetradecahydro-1H-cyclopenta[a]phenanthren-17-yl)pentan-1-one] | < 250 | 1000 to 10000
C[C@H](CCC(=O)N(C)c1ccncc1)[C@H]1CC[C@H]2[C@@H]3CC=C4C[C@@H](O)CC[C@]4(C)[C@H]3CC[C@]12C [Example 639, (R)-4-((3S,8S,9S,10R,13R,14S,17R)-3-hydroxy-10,13-dimethyl-2,3,4,7,8,9,10,11,12,13,14,15,16,17-tetradecahydro-1H-cyclopenta[a]phenanthren-17-yl)-N-methyl-N-(pyridin-4-yl)pentanamide] | 250 to 1000 | > 10000
C[C@H](OC(=O)C(=O)N1CCCC1)[C@H]1CC[C@H]2[C@@H]3CC=C4C[C@@H](O)CC[C@]4(C)[C@H]3CC[C@]12C [Example 198, (S)-1-((3S,8S,9S,10R,13S,14S,17S)-3-hydroxy-10,13-dimethyl-2,3,4,7,8,9,10,11,12,13,14,15,16,17-tetradecahydro-1H-cyclopenta[a]phenanthren-17-yl)ethyl 2-oxo-2-(pyrrolidin-1-yl)acetate] | < 250 | 1000 to 10000
C[C@H](CCC(=O)N1CCC(NS(C)(=O)=O)CC1)[C@H]1CC[C@H]2[C@@H]3CC=C4C[C@@H](O)CC[C@]4(C)[C@H]3CC[C@]12C [Example 414, N-(1-((R)-4-((3S,8S,9S,10R,13R,14S,17R)-3-hydroxy-10,13-dimethyl-2,3,4,7,8,9,10,11,12,13,14,15,16,17-tetradecahydro-1H-cyclopenta[a]phenanthren-17-yl)pentanoyl)piperidin-4-yl)methanesulfonamide] | 250 to 1000 | > 10000
CCC(=O)N1CCN(C(=O)CC[C@@H](C)[C@H]2CC[C@H]3[C@@H]4CC=C5C[C@@H](O)CC[C@]5(C)[C@H]4CC[C@]23C)C[C@@H]1C [Example 569, (R)-4-((3S,8S,9S,10R,13R,14S,17R)-3-hydroxy-10,13-dimethyl-2,3,4,7,8,9,10,11,12,13,14,15,16,17-tetradecahydro-1H-cyclopenta [a]phenanthren-17-yl)-1-((S)-3-methyl-4-propionylpiperazin-1-yl)pentan-1-one] | < 250 | > 10000
C[C@H](CCC(=O)N1CCC(O)(c2ccccc2)CC1)[C@H]1CC[C@H]2[C@@H]3CC=C4C[C@@H](O)CC[C@]4(C)[C@H]3CC[C@]12C [Example 91, (R)-4-((3S,8S,9S,10R,13R,14S,17R)-3-hydroxy-10,13-dimethyl-2,3,4,7,8,9,10,11,12,13,14,15,16,17-tetradecahydro-1H-cyclopenta[a]phenanthren-17-yl)-1-(4-hydroxy-4-phenylpiperidin-1-yl) pentan-1-one] | < 250 | > 10000
C[C@H](CCC(=O)N1CCN(c2ccncc2)CC1)[C@H]1CC[C@H]2[C@@H]3CC=C4C[C@@H](O)CC[C@]4(C)[C@H]3CC[C@]12C [Example 396, (R)-4-((3S,8S,9S,10R,13R,14S,17R)-3-hydroxy-10,13-dimethyl-2,3,4,7,8,9,10,11,12,13,14,15,16,17-tetradecahydro-1H-cyclopenta[a]phenanthren-17-yl)-1-(4-(pyridin-4-yl)piperazin-1-yl)pentan-1-one] | < 250 | > 10000
C[C@H](CCC(=O)N(c1ccncc1)C1CC1)[C@H]1CC[C@H]2[C@@H]3CC=C4C[C@@H](O)CC[C@]4(C)[C@H]3CC[C@]12C [Example 548, (4R)-4-[(1R,3aS,3bS,7S,9aR,9bS,11aR)-7-hydroxy-9a,11a-dimethyl-1H,2H,3H,3aH,3bH,4H,6H,7H,8H,9H,9aH,9bH,10H,11H,11aH-cyclopenta[a]phenanthren-1-yl]-N-cyclopropyl-N-(pyridin-4-yl)pentanamide] | < 250 | 250 to 1000
COc1ncncc1N1CCN(C(=O)CC[C@@H](C)[C@H]2CC[C@H]3[C@@H]4CC=C5C[C@@H](O)CC[C@]5(C)[C@H]4CC[C@]23C)CC1 [Example 614, (4R)-4-[(1R,3aS,3bS,7S,9aR,9bS,11aR)-7-hydroxy-9a,11a-dimethyl-1H,2H,3H,3aH,3bH,4H,6H,7H,8H,9H,9aH,9bH,10H,11H,11aH-cyclopenta[a]phenanthren-1-yl]-1-[4-(4-methoxypyrimidin-5-yl)piperazin-1-yl]pentan-1-one] | < 250 | > 10000
C[C@H](CCC(=O)N1CCN(c2ncncc2N)CC1)[C@H]1CC[C@H]2[C@@H]3CC=C4C[C@@H](O)CC[C@]4(C)[C@H]3CC[C@]12C [Example 632, (R)-1-(4-(5-aminopyrimidin-4-yl)piperazin-1-yl)-4-((3S,8S,9S,10R,13R,14S,17R)-3-hydroxy-10,13-dimethyl-2,3,4,7,8,9,10,11,12,13,14,15,16,17-tetradecahydro-1H-cyclopenta[a]phenanthren-17-yl)pentan-1-one] | < 250 | > 10000
